{"source": "patent US20110110965A1", "about": "“COMPOSITIONS THAT INDUCE T CELL HELP” (Selecta Biosciences, Inc., priority 2009, published 2011)", "key": {"[1]": {"system": "CD4+/CD45RAlow/CD62Lhigh central memory T-cells", "format": "cell-based, human", "details": "for memory T-cell recall response, influenza epitopes: 5 PBMC donors, FIG. 12; for memory T-cell recall response, influenza epitopes / potency of recall response (activated central memory T-cells, CD4+/CD45RAmedium/CD62Lhigh/IFN-γ+) / memory T-cell recall response of individual peptides and heterodimeric peptides lacking a cathepsin cleavage site compared with this peptide: 4 μM peptide; for potency of recall response (activated central memory T-cells, CD4+/CD45RAmedium/CD62Lhigh/IFN-γ+): human PBMC, 20 donors, FIG. 2; for memory T-cell recall response of individual peptides and heterodimeric peptides lacking a cathepsin cleavage site compared with this peptide: 4 donors, the comparators gave the weaker response, the labelled kvsvr peptides the stronger"}, "[2]": {"system": "CD4+/CD45RAlow/CD62Lhigh central memory T-cells", "experiment": "Dendritic cell/CD4 T-cell co-culture, multi-color intracellular cytokine analysis", "format": "cell-based, human", "details": "for expression of IL-4 in peptide activated memory T-cells / expression of TNF-α and IFN-γ in peptide activated memory T-cells: DC/CD4 T-cell co-culture with peptide, FIGS. 4, 5; for co-expression of TNF-α and IFN-γ / co-expression of TNF-α and IL-4: multiple color flow cytometry, FIG. 6", "description": "Early central memory-cells express multiple cytokines (IL-2, TNF-α, IFN-γ) when re-activated with specific peptides, whereas committed effector memory T-cells are thought to selectively express IL-4 for TH2 committed effector memory, and IFN-γ for TH1 committed effector memory. The status of peptide activated memory T-cells was tested using multi-color intracellular cytokine analysis of dendritic cell/CD4 cell co-cultures.\nHuman peripheral blood monocytes were isolated using negative-selection magnetic beads (Dynal) and cultured in the presence of GM-CSF and IL-4 for 1 week in order to induce differentiation into dendritic cells. Allogeneic CD4 T cells were isolated using magnetic bead separation (Dynal) and co-cultured in the presence of DCs in the presence or absence of peptide. The protocol for stimulation and analysis from that point is identical to that for PBMC described above in Example 2."}}, "note": "“Also recorded” adds a separate entry of the source. Like-named read-outs stand apart in the source and are kept apart here. Where no end group is shown, it is not given here. [ ]: non-standard residue; d: D form."}
{"substance": "CSQRSKFLLMDALKLkvsvrLIFLARSALILR [AAWkAAT]", "values": [{"measurement": "memory T-cell recall response, influenza epitopes", "setting": "[1]", "value": "positive"}]}
{"substance": "ILMQYIKANSKFIGI QSIALSSLMVAQTLLYVLFEV (ILMQYIKANSKFIGIQSIALSSLMVAQTLLYVLFEV) [TT830DTAdV]", "values": [{"measurement": "memory T-cell recall response", "setting": "[1]", "value": "recall response in all 4 donors"}]}
{"substance": "ILMQYIKANSKFIGIPMGLPQSIALSSLMVAQ [TT830pDTt]", "values": [{"measurement": "potency of recall response (activated central memory T-cells, CD4+/CD45RAmedium/CD62Lhigh/IFN-γ+)", "setting": "[1]; listed as TT830 pmglpDTt", "value": "highest response; also recorded: more active than its individual components (TT830 and DT) alone"}, {"measurement": "number (out of 20) donors positive for memory T-cells responding to peptide", "setting": "[1]; positive if greater than 0.08% responding central memory T-cells in the CD4+CD45RAlow population, FIG. 3", "value": "20/20"}, {"measurement": "expression of IL-4 in peptide activated memory T-cells", "setting": "[2]", "value": "not IL-4"}, {"measurement": "expression of TNF-α and IFN-γ in peptide activated memory T-cells", "setting": "[2]", "value": "increased expression"}, {"measurement": "co-expression of TNF-α and IFN-γ", "setting": "[2]", "value": "peptide induced co-expression"}, {"measurement": "co-expression of TNF-α and IL-4", "setting": "[2]", "value": "not co-expression"}]}
{"substance": "ILMQYIKANSKFIGIQSIALSSLMVAQ [TT830DTt]", "values": [{"measurement": "co-expression of TNF-α and IFN-γ", "setting": "[2]", "value": "peptide induced co-expression"}, {"measurement": "co-expression of TNF-α and IL-4", "setting": "[2]", "value": "not co-expression"}]}
{"substance": "ILMQYIKANSKFIGIQSIALSSLMVAQAIPLVGEL [TT830DT]", "values": [{"measurement": "expression of IL-4 in peptide activated memory T-cells", "setting": "[2]", "value": "not IL-4"}, {"measurement": "expression of TNF-α and IFN-γ in peptide activated memory T-cells", "setting": "[2]", "value": "increased expression"}]}
{"substance": "ILSIYSTVASSLALAIkvsvrLIFLARSALILR [ABW2kAAT]", "values": [{"measurement": "memory T-cell recall response, influenza epitopes", "setting": "[1]", "value": "positive"}]}
{"substance": "LIFLARSALILRkvsvrILSIYSTVASSLALAI [AATkABW2]", "values": [{"measurement": "memory T-cell recall response, influenza epitopes", "setting": "[1]", "value": "positive"}]}
{"substance": "NAELLVALENQHTIkvsvrLIFLARSALILR (NAELLVALENQHTIKVSVRLIFLARSALILR) [3120tkAAT]", "values": [{"measurement": "memory T-cell recall response, influenza epitopes", "setting": "[1]", "value": "positive"}]}
{"substance": "TLLYVLFEVPMGLPILMQYIKANSKFIGI [AdVpTT830]", "values": [{"measurement": "potency of recall response (activated central memory T-cells, CD4+/CD45RAmedium/CD62Lhigh/IFN-γ+)", "setting": "[1]", "value": "eliminated activity of the AdV epitope"}]}
{"substance": "TLLYVLFEVkvsvr NNFTVSFWLRVPKVSASHLET (TLLYVLFEV[dK][dV][dS][dV][dR]NNFTVSFWLRVPKVSASHLET) [AdVkTT950]", "values": [{"measurement": "memory T-cell recall response of individual peptides and heterodimeric peptides lacking a cathepsin cleavage site compared with this peptide", "setting": "[1]", "value": "weaker response as compared to the donor response to heterotrimeric peptides"}]}
{"substance": "TLLYVLFEVkvsvrQSIALSSLMVAQ (TLLYVLFEV[dK][dV][dS][dV][dR]QSIALSSLMVAQ) [AdVkDTt]", "values": [{"measurement": "memory T-cell recall response of individual peptides and heterodimeric peptides lacking a cathepsin cleavage site compared with this peptide", "setting": "[1]", "value": "weaker response as compared to the donor response to heterotrimeric peptides"}]}
